{"source": "paper PMC6882468", "about": "(Journal of Enzyme Inhibition and Medicinal Chemistry, 2019)", "key": {"[1]": {"system": "DNFB-induced mouse model of allergic contact dermatitis", "test": "DNFB-induced mouse model of allergic contact dermatitis (ear swelling)", "type": "in vivo, Male ICR mice", "method": "Male ICR mice (20 ± 2 g) were obtained from the Experimental Animal Centre of Anhui Medical University (Hefei, China). The mice reared in a pathogen-free setting (23 ± 2 °C, 55 ± 5% humidity) with free access to water and pelleted food throughout the experimental cycle. All experimental procedures performed in accordance with guide for the Care and Use of Laboratory Animals (National Research Council, 1996) and were approved by the Experimental Animal Ethics Committee of Anhui University of Chinese Medicine (Hefei, China). After 7 days acclimatisation, the mice were randomly divided into control group, ACD model group, dexamethasone positive control group and 20 compound groups, six in each group. The control group and the model group were given the same dose of the vehicle, the positive control group was given dexamethasone 0.5 mg/kg, and the test compound groups were given compound 5 mg/kg, all of which were given by intragastric administration and were administered once a day for 6 days. Except for the control group, the 50 µL of 1% DNFB (in acetone/olive oil 4:1) was administered to the stripped epidermis, and repeated the next day. After 6 days of drug treatment, 10 µL of 1% DNFB acetone olive oil solution was applied on both sides of the right ear to stimulate inflammation, and equivalent acetone olive oil solution was applied on the left ear for comparison. […] Calculation was carried out according to the following equations. Swelling degree (mg) = MR – ML Inhibitory rate of ear swelling (%)=((MR – ML) model – (MR – ML) treated)/(MR – ML) model ×100% MR=Average weight of the right ear slices;ML= Average weight of the left ear slices […] Dexamethasone (DEX) at a p.o. dose of 0.5 mg/kg was employed as the positive control. After the mice were sacrificed, the swelling degree and inhibition rate were calculated by weighing the same part of both ears."}, "[2]": {"system": "NO production in RAW 264.7 macrophages", "test": "Measurement of LPS-induced NO production (Griess)", "type": "cell-based, Murine", "details": "RAW264.7, 2 h pre-treatment (0–20 µM), LPS 200 ng/mL 24 h", "method": "Murine RAW 264.7 macrophages were obtained from the American Type Culture Collection (ATCC, USA). The cells were incubated in DMEM media supplemented with 10% FBS, 100 U/mL penicillin and […] streptomycin at 37 °C with 5% CO2. The RAW 264.7 macrophages were inoculated at 96-well plates and were pre-treated with vehicle or 6n (0–20 µM dose range) for 2 h and then stimulated with LPS (200 ng/mL) for 24 h. NO concentration in the medium was determined using Griess reagent kit (Beyotime, China) at 540 nm with a microplate reader (MQX200, Bio-Tek, USA) and calculated the inhibition rate of NO."}, "[3]": {"system": "iNOS expression in RAW264.7 cells", "test": "Western blot of LPS-induced iNOS expression", "type": "cell-based, Murine", "details": "RAW264.7, LPS 200 ng/mL 24 h", "method": "(§1) The cell in 96-well plates were treated as described above and then stimulated with LPS (200 ng/mL) for 24 h. The cells were harvested and lysed in an extraction lysis buffer (Beyotime Biotechnology, Shanghai, China) containing protease inhibitors. The protein concentration was determined using a BCA protein assay kit (Thermo Scientific, 23227). The whole cell lysates were separated by 10% sodium dodecyl sulphate-polyacrylamide gel electrophoresis and transferred to a nitrocellulose membrane. Each membrane was incubated with Tris-buffered saline (pH 7.6, containing 0.05% Tween-20 and 5% non-fat milk). The nitrocellulose membrane was incubated with the primary antibody against p-JNK1/2, JNK1/2, p-p38, p38, p-ERK1/2, ERK1/2, IκBa, NF-κB p65, COX-2, iNOS or β-Actin (Abcam, Cambridge, UK). Immunoreactive bands were detected by incubating with horseradish peroxidase-conjugated secondary antibodies, and visualised using enhanced chemiluminescence reagents (Bio-Rad, Hercules, CA).\n(§2) Figure 6. […] Cell viability was evaluated using the MTT assay. NO production was measured using nitrite and nitrate assay. iNOS and COX-2 expression were detected by Western blot. (A) Cell viability assay; (B) Quantitative analysis of NO productions; (C) Quantitative analysis of iNOS expressions, (D) Quantitative analysis of COX-2 expressions. β-actin was used as loading control."}, "[4]": {"system": "COX-2 expression in RAW264.7 cells", "test": "Western blot of LPS-induced COX-2 expression", "type": "cell-based, Murine", "details": "RAW264.7, LPS 200 ng/mL 24 h", "method": "as §1, §2"}, "[5]": {"system": "NF-κB activation in RAW264.7 cells", "test": "Western blot of LPS-induced NF-κB activation", "type": "cell-based, Murine", "details": "RAW264.7, 2-h pre-treatment before LPS stimulation", "method": "as §1\nFigure 5. Compound 6n inhibited LPS-induced NF-κB activation in RAW264.7 cells. […] The levels of NF-κB p65, IκB, and their phosphorylated forms were analysed using western blot."}, "[6]": {"system": "JNK phosphorylation in RAW264.7 cells", "test": "Western blot of LPS-induced JNK phosphorylation", "type": "cell-based, Murine", "details": "RAW264.7, 5, 10, 20 μM, LPS 200 ng/mL", "method": "as §1\n(§3) Figure 7. Compound 6n inhibited LPS-induced MAPK-signalling activation in RAW264.7 cells. RAW264.7 cells were co-incubated with 6n (5, 10, 20 μM) and LPS (200 ng/mL) for 30 min. The levels of p38, JNK, ERK1/2 and their phosphorylated forms were analysed using western blot."}, "[7]": {"system": "ERK phosphorylation in RAW264.7 cells", "test": "Western blot of LPS-induced ERK phosphorylation", "type": "cell-based, Murine", "details": "RAW264.7, 5, 10, 20 μM, LPS 200 ng/mL", "method": "as §1, §3"}}}
{"smiles": "COc1ccccc1CN1CCN(C(=O)c2ccccc2C(C)=O)CC1", "note": "[Compound 6n, 1–(2-(4–(2-Methoxybenzyl)piperazine-1-carbonyl)phenyl)ethan-1-one]", "values": [{"measurement": "Swelling degree", "setting": "[1]; mice, 5 mg/kg intragastric once a day for 6 days, ear slices weighed 24 h after DNFB challenge, Mean ± SD, n = 6", "value": "8.8 ± 3.2", "unit": "mg"}, {"measurement": "Inhibition (%) of ear swelling", "setting": "[1]; mice, 5 mg/kg intragastric once a day for 6 days, vs model group", "value": 46.3, "unit": "%"}, {"measurement": "in vivo inhibitory activity, in words", "setting": "[1]; p.o. 5 mg/kg, p < 0.01", "value": "significant inhibitory activity"}, {"measurement": "LPS-induced NO production", "setting": "[2]", "value": "reduced LPS-induced NO production in a dose-dependent manner"}, {"measurement": "LPS-induced expression of iNOS", "setting": "[3]", "value": "dose-dependent decrease"}, {"measurement": "LPS-induced expression of COX-2", "setting": "[4]", "value": "dose-dependent decrease"}, {"measurement": "LPS-induced IκB phosphorylation", "setting": "[5]", "value": "markedly decreased"}, {"measurement": "accumulation of NF-κB p65 subunit in the nucleus", "setting": "[5]", "value": "lowered"}, {"measurement": "cytosolic IκB", "setting": "[5]", "value": "increased"}, {"measurement": "phosphorylation of JNK", "setting": "[6]", "value": "no obvious effect"}, {"measurement": "phosphorylation of ERK", "setting": "[7]", "value": "no obvious effect"}]}
